Experimental data published in patent US20170275298A1, “INHIBITORS OF THE RENAL OUTER MEDULLARY POTASSIUM CHANNEL” (Merck Sharp & Dohme Corp., priority 2014, published 2017).
pIC50: −log10 of the molar value.

molecular target: T1, hROMK (hKir1.1) (Homo sapiens, UniProt P48048); assay: Thallium Flux Assay (ROMK channel functional thallium flux assay); type: cell-based; settings: HEK293 cells stably expressing hROMK (hKir1.1); FluxOR thallium flux, FLIPR-Tetra, 30 min compound incubation; read-out: ROMK TI IC50
T1 construct: expressed in transfected cells
T1 sequence (P48048 1-391): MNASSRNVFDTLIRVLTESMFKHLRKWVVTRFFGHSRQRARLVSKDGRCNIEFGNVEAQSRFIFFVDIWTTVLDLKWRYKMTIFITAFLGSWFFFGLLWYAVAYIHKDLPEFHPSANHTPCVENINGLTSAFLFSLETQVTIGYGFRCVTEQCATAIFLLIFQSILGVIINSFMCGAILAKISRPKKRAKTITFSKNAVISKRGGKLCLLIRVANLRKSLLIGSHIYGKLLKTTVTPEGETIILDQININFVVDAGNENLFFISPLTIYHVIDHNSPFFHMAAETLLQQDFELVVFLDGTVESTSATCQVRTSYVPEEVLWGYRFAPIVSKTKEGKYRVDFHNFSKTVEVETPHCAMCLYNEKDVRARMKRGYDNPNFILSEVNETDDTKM
Summary of the method: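 HEK293 cells stably expressing hROMK (hKir1.1) loaded with FluxOR dye 90 min at ambient temperature, then compound 30 min before thallium/potassium stimulant (final 3 mM Tl/0.3 mM K). ROMK-sensitive flux defined by 3 μM standard inhibitor; data as % fluorescence change.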

| Compound | pIC50 |
| --- | --- |
| Cc1cnsc1N1CCC2(CCN(C[C@H](O)c3ccc4c(c3C)COC4=O)CC2)C1=O [Example 104, (R)-8-(2-hydroxy-2-(4-methyl-1-oxo-1,3-dihydroisobenzofuran-5-yl)ethyl)-2-(4-methylisothiazol-5-yl)-2,8-diazaspiro[4.5]decan-1-one] | 7.18 |
| Cc1c([C@@H](O)CN2CCC3(CC2)CCN(c2sncc2Cl)C3=O)ccc2c1COC2=O [Example 105, (R)-2-(4-chloroisothiazol-5-yl)-8-(2-hydroxy-2-(4-methyl-1-oxo-1,3-dihydroisobenzofuran-5-yl)ethyl)-2,8-diazaspiro[4.5]decan-1-one] | 7.27 |
| Cc1c([C@@H](O)CN2CCC3(CC2)NCCN(c2ccc(=O)n(C)n2)C3=O)ccc2c1COC2=O [Example 106, (R)-9-(2-hydroxy-2-(4-methyl-1-oxo-1,3-dihydroisobenzofuran-5-yl)ethyl)-4-(1-methyl-6-oxo-1,6-dihydropyridazin-3-yl)-1,4,9-triazaspiro[5.5]undecan-5-one] | 6.44 |
| Cc1c([C@@H](O)[C@H](C)N2CCC3(CCN(c4ccc(=O)n(C)n4)C3=O)CC2)ccc2c1COC2=O [Example 107, 8-((1R,2S)-1-hydroxy-1-(4-methyl-1-oxo-1,3-dihydroisobenzofuran-5-yl)propan-2-yl)-2-(1-methyl-6-oxo-1,6-dihydropyridazin-3-yl)-2,8-diazaspiro[4.5]decan-1-one] | 7.38 |
| Cc1c([C@@H](O)[C@@H](C)N2CCC3(CCN(c4ccc(=O)n(C)n4)C3=O)CC2)ccc2c1COC2=O [Example 108, 8-((1R,2R)-1-hydroxy-1-(4-methyl-1-oxo-1,3-dihydroisobenzofuran-5-yl)propan-2-yl)-2-(1-methyl-6-oxo-1,6-dihydropyridazin-3-yl)-2,8-diazaspiro[4.5]decan-1-one] | 7.25 |
| Cc1c(C(O)C(C)N2CCC3(CCN(c4ccc(=O)n(C)n4)C3=O)CC2)ccc2c1COC2=O [Example 109, 8-41S,2S)-1-hydroxy-1-(4-methyl-1-oxo-1,3-dihydroisobenzofuran-5-yl)propan-2-yl)-2-(1-methyl-6-oxo-1,6-dihydropyridazin-3-yl)-2,8-diazaspiro[4.5]decan-1-one] | 7.70 |
| Cc1c([C@@H](O)CN2CCC3(CC2)CCN(c2cnn(C)c(=O)c2)CC3)ccc2c1COC2=O [Example 110, (R)-5-(9-(2-hydroxy-2-(4-methyl-1-oxo-1,3-dihydroisobenzofuran-5-yl)ethyl)-3,9-diazaspiro[5.5]undecan-3-yl)-2-methylpyridazin-3(2H)-one] | 6.55 |
| Cc1c([C@@H](O)CN2CCC3(CC2)CCN(c2cncc(F)c2)CC3)ccc2c1COC2=O [Example 111, 9-(5-fluoropyridin-3-yl)-3-[(2R)-2-hydroxy-2-(4-methyl-1-oxo-1,3-dihydro-2-benzofuran-5-yl)ethyl]-9-aza-3-azoniaspiro[5.5]undecane] | 6.73 |
| Cc1c([C@@H](O)CN2CCC3(CC2)CCN(c2ccccn2)CC3)ccc2c1COC2=O [Example 112, 3-[(2R)-2-hydroxy-2-(4-methyl-1-oxo-1,3-dihydro-2-benzofuran-5-yl)ethyl]-9-pyridin-2-yl-9-aza-3-azoniaspiro[5.5]undecane] | 6.55 |
| Cc1c([C@@H](O)CN2CCC3(CC2)CCN(c2ccc(=O)n(C)n2)CC3)ccc2c1COC2=O [Example 113, (R)-6-(9-(2-hydroxy-2-(4-methyl-1-oxo-1,3-dihydroisobenzofuran-5-yl)ethyl)-3,9-diazaspiro[5.5]undecan-3-yl)-2-methylpyridazin-3(2H)-one] | 6.21 |
| COc1ccnc(N2CCC3(CCN(C[C@H](O)c4ccc5c(c4C)COC5=O)CC3)CC2)n1 [Example 114, (R)-5-(1-hydroxy-2-(9-(4-methoxypyrimidin-2-yl)-3,9-diazaspiro[5.5]undecan-3-yl)ethyl)-4-methylisobenzofuran-1(3H)-one] | 6.42 |
| Cc1c([C@@H](O)CN2CCC3(CC2)CCN(c2ccc(C(F)(F)F)cn2)CC3)ccc2c1COC2=O [Example 115, (R)-5-(1-hydroxy-2-(9-(5-(trifluoromethyl)pyridin-2-yl)-3,9-diazaspiro[5.5]undecan-3-yl)ethyl)-4-methylisobenzofuran-1(3H)-one] | 6.65 |
| Cc1c([C@@H](O)CN2CCC3(CC2)CCN(c2cnccn2)CC3)ccc2c1COC2=O [Example 116, (R)-5-(1-hydroxy-2-(9-(pyrazin-2-yl)-3,9-diazaspiro[5.5]undecan-3-yl)ethyl)-4-methylisobenzofuran-1(3H)-one] | 8.20 |
| Cc1c([C@@H](O)CN2CCC3(CC2)CCN(c2cc(F)ncn2)CC3)ccc2c1COC2=O [Example 117, (R)-5-(2-(9-(6-fluoropyrimidin-4-yl)-3,9-diazaspiro[5.5]undecan-3-yl)-1-hydroxyethyl)-4-methylisobenzofuran-1(3H)-one] | 6.39 |
| COc1cnc(N2CCC3(CCN(C[C@H](O)c4ccc5c(c4C)COC5=O)CC3)CC2)nc1 [Example 118, (R)-5-(1-hydroxy-2-(9-(5-methoxypyrimidin-2-yl)-3,9-diazaspiro[5.5]undecan-3-yl)ethyl)-4-methylisobenzofuran-1(3H)-one] | 6.90 |
| Cc1c([C@@H](O)CN2CCC3(CC2)CCN(c2ncc(C(F)(F)F)cc2F)CC3)ccc2c1COC2=O [Example 119, (R)-5-(2-(9-(3-fluoro-5-(trifluoromethyl)pyridin-2-yl)-3,9-diazaspiro[5.5]undecan-3-yl)-1-hydroxyethyl)-4-methylisobenzofuran-1(3H)-one] | 6.01 |
| Cc1c([C@@H](O)CN2CCC3(CC2)CCN(c2cnc(C(=O)O)cn2)CC3)ccc2c1COC2=O [Example 120, (R)-5-(9-(2-hydroxy-2-(4-methyl-1-oxo-1,3-dihydroisobenzofuran-5-yl)ethyl)-3,9-diazaspiro[5.5]undecan-3-yl)pyrazine-2-carboxylic acid] | 6.63 |
| Cc1c([C@@H](O)CN2CCC3(CC2)CCN(c2cncc(C(=O)O)n2)CC3)ccc2c1COC2=O [Example 121, (R)-6-(9-(2-hydroxy-2-(4-methyl-1-oxo-1,3-dihydroisobenzofuran-5-yl)ethyl)-3,9-diazaspiro[5.5]undecan-3-yl)pyrazine-2-carboxylic acid] | 6.50 |
| Cc1c([C@@H](O)CN2CCC3(CC2)CCN(c2nccnc2N)CC3)ccc2c1COC2=O [Example 122, (R)-5-(2-(9-(3-aminopyrazin-2-yl)-3,9-diazaspiro[5.5]undecan-3-yl)-1-hydroxyethyl)-4-methylisobenzofuran-1(3H)-one] | 6.80 |
| Cc1c([C@@H](O)CN2CCC3(CC2)CCN(c2ccc(Cl)nn2)CC3)ccc2c1COC2=O [Example 123, (R)-5-(2-(9-(6-chloropyridazin-3-yl)-3,9-diazaspiro[5.5]undecan-3-yl)-1-hydroxyethyl)-4-methylisobenzofuran-1(3H)-one] | 8.07 |
| Cc1ccc(N2CCC3(CCN(C[C@H](O)c4ccc5c(c4C)COC5=O)CC3)CC2)nn1 [Example 124, (R)-5-(1-hydroxy-2-(9-(6-methylpyridazin-3-yl)-3,9-diazaspiro[5.5]undecan-3-yl)ethyl)-4-methylisobenzofuran-1(3H)-one] | 7.43 |
| Cc1c([C@@H](O)CN2CCC3(CC2)CCN(c2cnc(C(F)(F)F)cn2)CC3)ccc2c1COC2=O [Example 125, (R)-5-(1-hydroxy-2-(9-(5-(trifluoromethyl)pyrazin-2-yl)-3,9-diazaspiro[5.5]undecan-3-yl)ethyl)-4-methylisobenzofuran-1(3H)-one] | 6.31 |
| Cc1c([C@@H](O)CN2CCC3(CC2)CCN(c2cncc(Cl)n2)CC3)ccc2c1COC2=O [Example 126, (R)-5-(2-(9-(6-chloropyrazin-2-yl)-3,9-diazaspiro[5.5]undecan-3-yl)-1-hydroxyethyl)-4-methylisobenzofuran-1(3H)-one] | 6.55 |
| Cc1c([C@@H](O)CN2CCC3(CC2)CCN(c2cnc(Br)cn2)CC3)ccc2c1COC2=O [Example 127, (R)-5-(2-(9-(5-bromopyrazin-2-yl)-3,9-diazaspiro[5.5]undecan-3-yl)-1-hydroxyethyl)-4-methylisobenzofuran-1(3H)-one] | 7.52 |
| Cc1nccnc1N1CCC2(CCN(C[C@H](O)c3ccc4c(c3C)COC4=O)CC2)CC1 [Example 128, (R)-5-(1-hydroxy-2-(9-(3-methylpyrazin-2-yl)-3,9-diazaspiro[5.5]undecan-3-yl)ethyl)-4-methylisobenzofuran-1(3H)-one] | 6.24 |
| Cc1c([C@@H](O)CN2CCC3(CC2)CCN(c2cncc(N)n2)CC3)ccc2c1COC2=O [Example 129, (R)-5-(2-(9-(6-aminopyrazin-2-yl)-3,9-diazaspiro[5.5]undecan-3-yl)-1-hydroxyethyl)-4-methylisobenzofuran-1(3H)-one] | 7.17 |
| Cc1cc(N2CCC3(CCN(C[C@H](O)c4ccc5c(c4C)COC5=O)CC3)CC2)nnc1Cl [Example 130, (R)-5-(2-(9-(6-chloro-5-methylpyridazin-3-yl)-3,9-diazaspiro[5.5]undecan-3-yl)-1-hydroxyethyl)-4-methylisobenzofuran-1(3H)-one] | 6.26 |
| Cc1c([C@@H](O)CN2CCC3(CC2)CCN(c2cc(Cl)cnn2)CC3)ccc2c1COC2=O [Example 131, (R)-5-(2-(9-(5-chloropyridazin-3-yl)-3,9-diazaspiro[5.5]undecan-3-yl)-1-hydroxyethyl)-4-methylisobenzofuran-1(3H)-one] | 7.62 |
